Structures can show the parent of a compound that is named as a salt.
Tests used:
[1] = target: T1, furin (endogenous protease) in U20S cells (Homo sapiens, UniProt P09958); experiment: Furin cell-based assay (image-based, Golgi-targeted GFP with BMP10 furin/PCSK cleavage site); settings: 24-hour incubation, read-out: furin golgi cell pXC50 (converted);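 also: Read-out is mean GFP fluorescence of Golgi puncta per cell by high-content imaging, retained when furin inhibited, over an eleven-point 0.00017–10 µM series, four-parameter fit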
T1 construct: the endogenous protease cleaves GFP; endogenous in cells; host or cells: U2OS cells transduced with a BacMam reporter
T1 sequence (P09958 108-794): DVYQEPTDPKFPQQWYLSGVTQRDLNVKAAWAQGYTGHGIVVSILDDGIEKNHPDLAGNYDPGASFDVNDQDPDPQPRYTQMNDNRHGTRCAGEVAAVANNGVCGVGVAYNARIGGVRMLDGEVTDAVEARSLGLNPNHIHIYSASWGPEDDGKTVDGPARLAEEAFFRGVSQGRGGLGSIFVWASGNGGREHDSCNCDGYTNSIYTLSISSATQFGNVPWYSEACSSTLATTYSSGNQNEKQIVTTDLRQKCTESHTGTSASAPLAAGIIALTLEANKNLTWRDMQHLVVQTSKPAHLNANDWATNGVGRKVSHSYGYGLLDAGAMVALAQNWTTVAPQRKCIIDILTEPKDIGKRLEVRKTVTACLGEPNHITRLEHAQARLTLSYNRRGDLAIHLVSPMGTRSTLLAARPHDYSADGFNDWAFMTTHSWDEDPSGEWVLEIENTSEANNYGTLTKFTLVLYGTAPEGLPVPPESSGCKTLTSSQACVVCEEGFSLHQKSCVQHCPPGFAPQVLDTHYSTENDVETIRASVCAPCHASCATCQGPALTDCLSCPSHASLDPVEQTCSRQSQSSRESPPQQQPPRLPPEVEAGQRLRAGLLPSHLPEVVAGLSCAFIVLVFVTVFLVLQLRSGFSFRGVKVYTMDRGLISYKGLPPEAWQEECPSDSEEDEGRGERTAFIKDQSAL

[2] = target: T2, Furin (108-574-Tev-Flag-His) enzyme (Homo sapiens, UniProt P09958); experiment: Furin enzyme assay; assay type: biochemical; settings: for IC50: read-out: furin enzyme pIC50 (converted)
T2 construct: Furin (108-574-Tev-Flag-His) enzyme was expressed and purified from CHO cells; TEV cleavage site (C); FLAG (C); His (C); made in house; host or cells: CHO cells
T2 sequence (P09958 108-574): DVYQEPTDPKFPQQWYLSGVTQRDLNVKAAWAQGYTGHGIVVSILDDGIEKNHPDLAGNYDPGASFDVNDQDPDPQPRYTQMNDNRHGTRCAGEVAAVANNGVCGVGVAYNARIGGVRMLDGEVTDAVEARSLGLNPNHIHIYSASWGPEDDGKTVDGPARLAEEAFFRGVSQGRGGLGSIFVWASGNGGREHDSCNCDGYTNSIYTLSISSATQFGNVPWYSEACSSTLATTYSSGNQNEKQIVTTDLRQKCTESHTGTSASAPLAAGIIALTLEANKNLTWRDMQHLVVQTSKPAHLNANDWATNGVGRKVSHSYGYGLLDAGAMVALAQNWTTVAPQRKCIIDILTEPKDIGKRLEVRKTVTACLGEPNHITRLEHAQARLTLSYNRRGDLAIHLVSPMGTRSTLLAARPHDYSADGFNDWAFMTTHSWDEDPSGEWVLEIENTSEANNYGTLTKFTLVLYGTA
Outline: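 Compounds ran as 11-point threefold dilutions (0.00017–10 μM final) against 40 pM furin, purified from CHO cells, for 2 h at room temperature. Buffer: 100 mM HEPES pH7.5 with 1 mM CaCl2 and 0.005% Triton X-100. Envision readout. Four-parameter curve gives pXC50.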

Compound	EC50 [1]	furin enzyme pIC50 [2]	IC50 [2]
CC(=O)NCC1CCN(Cc2cc(Oc3cnc(N4CCN(CCC(=O)O)CC4)nc3)nc(-c3cc(Cl)cc(C(F)F)c3)c2)CC1 [Example 61, 3-(4-(5-((4-((4-(acetamidomethyl)piperidin-1-yl)methyl)-6-(3-chloro-5-(difluoromethyl)phenyl)pyridin-2-yl)oxy)pyrimidin-2-yl)piperazin-1-yl)propanoic acid]	158 nM	9.2	
COC(=O)NCC1CCN(Cc2cc(Oc3ccc(N4CCN(C)CC4)nc3)nc(-c3cc(Cl)cc(Cl)c3)c2)CC1 [Example 65, methyl ((1-((2-(3,5-dichlorophenyl)-6-((6-(4-methylpiperazin-1-yl)pyridin-3-yl)oxy)pyridin-4-yl)methyl)piperidin-4-yl)methyl)carbamate]	20 nM	8.7	
CNC(=O)OCC1CCN(Cc2cc(Oc3ccc(N4CCN(C)CC4)nc3)nc(-c3cc(Cl)cc(Cl)c3)c2)CC1 [Example 67, (1-((2-(3,5-dichlorophenyl)-6-((6-(4-methylpiperazin-1-yl)pyridin-3-yl)oxy)pyridin-4-yl)methyl)piperidin-4-yl)methyl methylcarbamate]	12.6 nM	10.4	
CC(=O)NCC1CCN(Cc2cc(Oc3cnc(N4CCN(C)CC4)nc3)cc(-c3cc(Cl)cc(Cl)c3)c2)CC1 [Example 68, N-((1-((3′,5′-dichloro-5-((2-(4-methylpiperazin-1-yl)pyrimidin-5-yl)oxy)-[1,1′-biphenyl]-3-yl)methyl)piperidin-4-yl)methyl)acetamide]	12.6 nM	9.6	
CNC(=O)NCC1CCN(Cc2cc(Oc3ccc(N4CCN(C)CC4)nc3)nc(-c3cc(Cl)cc(Cl)c3)c2)CC1 [Example 69, 1-((1-((2-(3,5-dichlorophenyl)-6-((6-(4-methylpiperazin-1-yl)pyridin-3-yl)oxy)pyridin-4-yl)methyl)piperidin-4-yl)methyl)-3-methylurea]	5.01 nM	9.1	
CC(=O)NCC1CCN(Cc2cc(Oc3cnc(N4CC5CCC(C4)N5C)nc3)nc(-c3cc(Cl)cc(Cl)c3)c2)CC1 [Example 71, N-((1-((2-(3,5-dichlorophenyl)-6-((2-(8-methyl-3,8-diazabicyclo[3.2.1]octan-3-yl)pyrimidin-5-yl)oxy)pyridin-4-yl)methyl)piperidin-4-yl)methyl)acetamide]	1.58 nM		0.2 nM
CNC(=O)OCC1CCN(Cc2cc(Oc3cnc(N4CCNCC4)nc3)nc(-c3cc(Cl)cc(Cl)c3)c2)CC1 [Example 73, (1-((2-(3,5-Dichlorophenyl)-6-((2-(piperazin-1-yl)pyrimidin-5-yl)oxy)pyridin-4-yl)methyl)piperidin-4-yl)methyl methylcarbamate]	6.31 nM	8.9	
CNC(=O)OCC1CCN(Cc2cc(Oc3ccc(N4CCNCC4)nc3)nc(-c3cc(Cl)cc(Cl)c3)c2)CC1 [Example 74, (1-((2-(3,5-Dichlorophenyl)-6-((6-(piperazin-1-yl)pyridin-3-yl)oxy)pyridin-4-yl)methyl)piperidin-4-yl)methyl methylcarbamate, 4 hydrochloride]	6.31 nM	8.4	
COC(=O)NCC1CCN(Cc2cc(Oc3ccc(N4CCNCC4)nc3)nc(-c3cc(Cl)cc(Cl)c3)c2)CC1 [Example 76, Methyl 1(1-((2-(3,5-dichlorophenyl)-6-((6-(piperazin-1-yl)pyridin-3-yl)oxy)pyridin-4-yl)methyl)piperidin-4-yl)methyl)carbamate, 4 hydrochloride]	10 nM	8.4	
CNC(=O)OCC1CCN(Cc2cc(Oc3ccc(N4CCN(CCC(=O)O)CC4)nc3)nc(-c3cc(Cl)cc(Cl)c3)c2)CC1 [Example 77, 3-(4-(5-((6-(3,5-Dichlorophenyl)-4-((4-(((methylcarbamoyl)oxy)methyl)piperidin-1-yl)methyl)pyridin-2-yl)oxy)pyridin-2-yl)piperazin-1-yl)propanoic acid, 4 hydrochloride]	63.1 nM	9.1	
NC(=O)CCN1CCN(Cc2cc(Oc3cnc(N4CCN(CCC(=O)O)CC4)nc3)nc(-c3cc(Cl)cc(Cl)c3)c2)CC1 [Example 78, 3-(4-(5-((4-((4-(3-Amino-3-oxopropyl)piperazin-1-yl)methyl)-6-(3,5-dichlorophenyl)pyridin-2-yl)oxy)pyrimidin-2-yl)piperazin-1-yl)propanoic acid]	63.1 nM	8	
NC(=O)CN1CCN(Cc2cc(Oc3cnc(N4CCN(CCC(=O)O)CC4)nc3)nc(-c3cc(Cl)cc(Cl)c3)c2)CC1 [Example 79, 3-(4-(5-((4-((4-(2-amino-2-oxoethyl)piperazin-1-yl)methyl)-6-(3,5-dichlorophenyl)pyridin-2-yl)oxy)pyrimidin-2-yl)piperazin-1-yl)propanoic acid]	79.4 nM	8.3	
CS(=O)(=O)N[C@H]1[C@@H]2CCN(Cc3cc(Oc4cnc(N5CCN(CCC(=O)O)CC5)nc4)nc(-c4cc(Cl)cc(Cl)c4)c3)CC[C@@H]21 [Example 80, 3-(4-(5-((6-(3,5-dichlorophenyl)-4-(((1R,7S,8r)-8-(methylsulfonamido)-4-azabicyclo[5.1.0]octan-4-yl)methyl)pyridin-2-yl)oxy)pyrimidin-2-yl)piperazin-1-yl)propanoic acid]	7.94 nM	9.5	
CC(CCN1CCN(c2ncc(Oc3cc(CN4CC[C@@H]5[C@H](CC4)[C@H]5NS(C)(=O)=O)cc(-c4cc(Cl)cc(Cl)c4)n3)cn2)CC1)C(=O)O (stereo partly drawn) [Example 81, 4-(4-(5-((6-(3,5-dichlorophenyl)-4-(((1R,7S,8r)-8-(methylsulfonamido)-4-azabicyclo[5.1.0]octan-4-yl)methyl)pyridin-2-yl)oxy)pyrimidin-2-yl)piperazin-1-yl)-2-methylbutanoic acid]	6.31 nM	9.4	
CC(=O)N[C@H]1[C@@H]2CCN(Cc3cc(Oc4cnc(N5CCN(CCC(C)C(=O)O)CC5)nc4)nc(-c4cc(Cl)cc(Cl)c4)c3)CC[C@@H]21 (stereo partly drawn) [Example 82, 4-(4-(5-((4-(((1R,7S,8r)-8-acetamido-4-azabicyclo[5.1.0]octan-4-yl)methyl)-6-(3,5-dichlorophenyl)pyridin-2-yl)oxy)pyrimidin-2-yl)piperazin-1-yl)-2-methylbutanoic acid]	5.01 nM	9.3	
CC(CCN1CCN(c2ncc(Oc3cc(CN4CCCC4)cc(-c4cc(Cl)cc(Cl)c4)n3)cn2)CC1)C(=O)O (stereo not shown) [Example 83, 4-(4-(5-((6-(3,5-dichlorophenyl)-4-(pyrrolidin-1-ylmethyl)pyridin-2-yl)oxy)pyrimidin-2-yl)piperazin-1-yl)-2-methylbutanoic acid]	50.1 nM	8.9	

Second part, the compound after the results:

EC50 [1]	furin enzyme pIC50 [2]	IC50 [2]	Compound
15.8 nM	7.6		CC(O)CCN1CCN(c2ncc(Oc3cc(CN4CCC(F)CC4)cc(-c4cc(Cl)cc(Cl)c4)n3)cn2)CC1 (stereo not shown) [Example 60, 4-(4-(5-((6-(3,5-dichlorophenyl)-4-((4-fluoropiperidin-1-yl)methyl)pyridin-2-yl)oxy)pyrimidin-2-yl)piperazin-1-yl)butan-2-ol]
7.94 nM	10.8		COC(=O)NCC1CCN(Cc2cc(Oc3cnc(N4CCN(C)CC4)nc3)nc(-c3cc(Cl)cc(Cl)c3)c2)CC1 [Example 63, Methyl ((1-1(2-(3,5-dichlorophenyl)-6-((2-(4-methylpiperazin-1-yl)pyrimidin-5-yl)oxy)pyridin-4-yl)methyl)piperidin-4-yl)methyl)carbamate, 4 hydrochloride]
10 nM	9.1		CC(=O)NCC1CCN(Cc2cc(Oc3cnc(N4CCN(C)CC4)nc3)nc(-c3cc(Cl)cc(Cl)c3)c2)CC1 [Example 64, N-((1-((2-(3,5-dichlorophenyl)-6-((2-(4-methylpiperazin-1-yl)pyrimidin-5-yl)oxy)pyridin-4-yl)methyl)piperidin-4-yl)methyl)acetamide]
7.94 nM		1.58 nM	CNC(=O)OCC1CCN(Cc2cc(Oc3cnc(N4CCN(C)CC4)nc3)nc(-c3cc(Cl)cc(Cl)c3)c2)CC1 [Example 66, (1-((2-(3,5-dichlorophenyl)-6-((2-(4-methylpiperazin-1-yl)pyrimidin-5-yl)oxy)pyridin-4-yl)methyl)piperidin-4-yl)methyl methylcarbamate]
3.98 nM		0.0316 nM	CNC(=O)NCC1CCN(Cc2cc(Oc3cnc(N4CCN(C)CC4)nc3)nc(-c3cc(Cl)cc(Cl)c3)c2)CC1 [Example 70, 1-((1-((2-(3,5-dichlorophenyl)-6-((2-(4-methylpiperazin-1-yl)pyrimidin-5-yl)oxy)pyridin-4-yl)methyl)piperidin-4-yl)methyl)-3-methylurea]
10 nM	8.8		CN1CCN(c2ncc(Oc3cc(CN4CCC(Cc5nnn[nH]5)CC4)cc(-c4cc(Cl)cc(Cl)c4)n3)cn2)CC1 [Example 72, 5-((4-((4-((1H-tetrazol-5-yl)methyl)piperidin-1-yl)methyl)-6-(3,5-dichlorophenyl)pyridin-2-yl)oxy)-2-(4-methylpiperazin-1-yl)pyrimidine]
3.16 nM	9.1		CNC(=O)NCC1CCN(Cc2cc(Oc3cnc(N4CCNCC4)nc3)nc(-c3cc(Cl)cc(Cl)c3)c2)CC1 [Example 75, 1-((1-((2-(3,5-Dichlorophenyl)-6-((2-(piperazin-1-yl)pyrimidin-5-yl)oxy)pyridin-4-yl)methyl)piperidin-4-yl)methyl)-3-methylurea, 4 hydrochloride]
